{"source": "patent US20250082781A1", "about": "“METHODS OF LOWERING BLOOD GLUCOSE AND TREATING TYPE 2 DIABETES BY ACTIVATION OF PDE4D3” (Salk Institute for Biological Studies, priority 2021, published 2025)", "key": {"[1]": {"test_system": "PDE4D", "assay": "Western blot of PDE4D phosphorylation in gWAT after injection", "assay_type": "in vivo, mouse", "settings": "30 minutes after FGF1 injection 0.5 mg/kg", "procedure": "(§1) Tissues were lysed in cold lysis buffer (50 mM Tris, pH 7.5, 150 mM NaCl, 1% NP40, 0.5% NaDoc, 0.1% SDS, 5% glycerol, 1 mM EDTA, protease and phosphatase inhibitors (complete and PhosSTOP (Roche)) by homogenization by bead-beater for 30 s. Samples were cleared for 10 min at 18,000 g at 4° C. and the middle clear phase was transferred to new tubes. A second 30 min centrifugation was performed and the middle clear phase was transferred to new tubes. Five ul protein extract was used for BCA assay to determine protein concentration. Samples were boiled in Laemmli buffer. SDS-PAGE and blotting were performed using gradient gels and Trans-Blot Turbo Transfer System (Bio-Rad). Antibodies used were PDE4D (12918-1-AP, Proteintech), pHSL-660 (4126S, Cell signaling), HSL (4107S, Cell Signaling), tubulin (CP06, Millipore Sigma), and GFP (A01388, GenScript). PDE4D3-pS44 phospho-specific antibody was generated using PDE4D3-S44 FRRHpSWISFDVDNGTSAGR peptide (SEQ ID NO: 20) (Mackenzie et al., 2002) by Pocono Rabbit Farm, using 70-day rabbit antibody production protocol and purified via affinity purification. Primary antibodies were incubated for 2 h at room temperature (RT) or overnight (ON) at 4° C. Blots were developed using SuperSignal West Pico PLUS Chemiluminescent Substrate (ThermoFisher Scientific) and imaged with BioRad GelDoc system."}, "[2]": {"test_system": "human SVF-derived adipocytes", "assay": "In vitro lipolysis assay (FFA release), human SVF-derived adipocytes", "assay_type": "cell-based", "procedure": "Differentiation of pre-adipocytes were based on previously published methods (Bunnell et al., 2008). Briefly, 3T3-L1 pre-adipocytes were grown to full confluence in DMEM, 10% FBS (GemCell, 100-500), 10 mM HEPES and antibiotic-antimycotic (full growth media). 2 days later, differentiation was induced by replacing the media with 1 μM dexamethasone, 1 μM rosiglitazone, 500 μM IBMX and 5 μg/ml insulin in full growth media 2 days later after reaching full confluence. Two days later media was replaced by differentiation induction media with 1 μM rosiglitazone and 5 μg/ml insulin for 4 days with media change after 2 days. Cells were kept in maintenance medium (full growth media with 5 μg/ml insulin) for 4 more days for full differentiation. For differentiation of mouse SVF derived adipocytes, the protocol was same except DMEM/F12 (10565018, ThermoFisher) was used as base media and initial differentiation induction media was kept for 3 days. For differentiation of human subcutaneous adipocytes, protocol and media from the manufacturer (C-12735, C-39437, Promocell) were used. […]\nFor in vitro lipolysis assay, cells were washed with PBS and media were changed to full growth media 1 day before experiment. […] FFAs were measured in the media using a commercial kit (Wako-NEFAHR2) and normalized to protein concentration. […] FFAs were measured and normalized by the explant weights."}, "[3]": {"test_system": "PDE4D", "assay": "Western blot of PDE4D phosphorylation in 3T3-L1 adipocytes", "assay_type": "cell-based", "procedure": "as §1"}, "[4]": {"test_system": "pyruvate carboxylase", "assay": "Hepatic pyruvate carboxylase (Pcx) activity assay", "assay_type": "in vivo, mouse", "settings": "HFD-fed adR1WT mice, FGF1 0.5 mg/kg", "procedure": "Pcx activity was determined by malate dehydrogenase coupling method originally reported by Payne et al. (Payne and Morris, 1969). Briefly, mice were sacrificed by decapitation. Liver samples were rapidly frozen in liquid nitrogen within 5 seconds of excision designed to avoid loss of hepatic acetyl-CoA levels. Frozen liver samples were pulverized on dry ice and approximately 100 mg of tissues were homogenized with TissueLyzer in Pcx activity assay buffer (50 mM Tris pH8, 10 mM MgCl2, 10 mM NaHCO3). Homogenates were cleared by centrifugation at 14000 rpm for 10 minutes. Cleared supernatants were diluted in Pcx activity assay buffer to approximately 1 μg/ul. Approximately 5 μg protein was loaded onto 96-well plates and the total volume was brought up to 20 ul by Pcx activity assay buffer. Absorbance at 340 nm was monitored every 9 seconds at 37° C. immediately after the addition of 80 ul Pcx reaction buffer (50 mM Tris pH8, 10 mM MgCl2, 10 mM NaHCO3, 6.25 mM ATP, 0.125 mM NADH, 2.5 mM pyruvate, malate dehydrogenase 0.025 U/ml in Pcx activity assay buffer). Pcx activity was determined as the loss of absorbance at 340 nm over time normalized to protein concentration."}, "[5]": {"test_system": "perilipin-HSL co-localization", "assay": "Perilipin-GFP and HSL-mCherry co-localization in 3T3-L1 adipocytes", "assay_type": "cell-based", "procedure": "3T3-L1 cells were transduced with viral particles ([…]) in 24 well plates. Media was replaced after overnight incubation. 3-4 days after AAV infection, cells were treated as described for lipolysis assay. For cAMP analysis by biosensors, Downward Green cADDis cAMP Sensor (D0200G) and control mNeon Green (F0500G) produced in BacMam system was purchased from Montana Molecular. Brightfield and fluorescence images were taken every 10-20 min in I IncuCyte® Live-cell analysis system (Sartorius) and images were analyzed by IncuCyte® Analysis Software. High-resolution live cell imaging was performed with LSM 880 Airyscan microscope at 40× objective."}}}
{"substance": "FGF1: Recombinant fibroblast growth factor 1 protein, dissolved in PBS, injected subcutaneously", "values": [{"measurement": "PDE4D phosphorylation in gWAT", "setting": "[1]", "value": "increase in PDE4D phosphorylation"}, {"measurement": "anti-lipolytic activity of FGF1 with selective inhibitors of PDE4", "setting": "[2]; FGF1 100 ng/ml with roflumilast 2 μM", "value": "blocked by selective inhibitors of PDE4"}, {"measurement": "basal and isoproterenol-induced lipolysis", "setting": "[2]; FGF1 100 ng/ml, 10 min before ISO 1 nM", "value": "acutely suppressed basal and isoproterenol-induced lipolysis"}, {"measurement": "FGF1-induced phosphorylation of PDE4D3 in the S44A mutant", "setting": "[3]; 3T3-L1 adipocytes infected with adAAV PDE4D3 S44A", "value": "lost"}, {"measurement": "S44 phosphorylation of PDE4D3", "setting": "[3]; 3T3-L1 cells overexpressing PDE4D3, absence and presence of isoproterenol", "value": "increased S44 phosphorylation"}, {"measurement": "PDE4D phosphorylation", "setting": "[3]; isoproterenol-stimulated, FGF1 co-treatment 100 ng/ml", "value": "increased both the extent and duration of PDE4D phosphorylation"}, {"measurement": "reduction in pyruvate carboxylase activity", "setting": "[4]", "value": "~50", "unit": "%"}, {"measurement": "isoproterenol-induced co-localization of perilipin-GFP and HSL-mCherry", "setting": "[5]; FGF1 100 ng/ml pretreatment, ISO 100 nM", "value": "reduced the isoproterenol-induced co-localization of perilipin-GFP and HSL-mCherry"}, {"measurement": "FGF1 effect on perilipin-HSL co-localization under PDE4 inhibition", "setting": "[5]; roflumilast 2 μM, PDE3 inhibition did not abrogate", "value": "abrogated the FGF1 effect"}]}
